# Values of other authors as cited in patent EP4632015A1, “COMPOUNDS FOR USE IN IN VIVO FLUORESCENCE-LIFETIME IMAGING” (Université de Bourgogne, priority 2024, dated 2025).
# Settings: in a biological environment
row,lifetime,SMILES
1,less than 1 ns,CC1(C)C(/C=C/C=C/C=C/C=C2\N(CCCCS(=O)(=O)[O-])c3ccc4ccccc4c3C2(C)C)=[N+](CCCCS(=O)(=O)[O-])c2ccc3ccccc3c21.[Na+] [ICG]
2,less than 1 ns,CC1(C)C(=CC=C2CCCC(C=CC3=[N+](CCCCCC(=O)[O-])c4ccc(S(=O)(=O)[O-])cc4C3(C)C)=C2Oc2ccc(S(=O)(=O)[O-])cc2)N(CCCCS(=O)(=O)[O-])c2ccc(S(=O)(=O)[O-])cc21.[Na+].[Na+].[Na+].[Na+] [IRDye800CW]
